Reference: patent publication US11607432B2, “Probiotic compositions containing clostridiales for inhibiting inflammation” (Evelo Biosciences, Inc., priority 2014, dated 2023)
“Also recorded” adds a separate entry of the source. Where two headings read alike, the source gives them in different places.

Assays:
[1] = Normal human volunteer study of D-xylose: serum CRP, serum cytokines and T-cell markers; assay type: in vivo
Excerpt: Blood was collected at pre-specified pre- and post-ingestion time points to evaluate C-reactive protein (CRP), serum cytokines (tumor necrosis factor alpha [TNF-α], interleukin [IL]-2, IL-6, interferon gamma [IFN-γ], and IL-10), and T-cell markers CD3, CD4, CD8, CD25, and FOXP3. Plasma was also stored and may be tested for biomarkers and/or metabolic markers for up to 7 years.
Summary statistics (n, mean, standard deviation, median, minimum, and maximum) were presented for serum concentrations of CRP, flow cytometry T-cell markers (CD3, CD4, CD8, CD25, and FOXP3), and cytokines (TNF-α, IL-2, IL-6, IFN-γ, and IL-10) as per their nominal time points.

intestinal permeability = assay type: in vivo, mice
[2] = human, in vivo
Protocol: D-xylose is a carbon source generally preferred by anaerobic bacteria. […] A parallel, double-blind, 5 cohort escalation food safety study was conducted to examine D-xylose in normal human volunteers. The study was a double-blind, single-center, parallel group study designed to evaluate the tolerability and potential microbiome changes induced by ingestion of D-xylose at 5 different amounts in healthy, adult volunteers enrolled at 1 study center in the United States (US).
Subjects were screened for eligibility within 21 days prior to the first planned ingestion of study sweetener on Day 1 (Baseline). […]
Subjects returned to the study center weekly on Days 8, 15, 22, and 28 for ingestion, tolerability, and compliance evaluations. Safety was evaluated on a continual basis through adverse events (AE) monitoring, clinical laboratory measurements, vital sign monitoring, physical examinations, electrocardiograms (ECGs), telephone follow-up, and electronic subject ingestion diaries. Stool was collected pre-ingestion and at pre-specified time points, and post-ingestion samples were evaluated for changes in the gut microbiome compared with Baseline for all subjects. […]
Safety was evaluated on a continual basis through AE monitoring, clinical laboratory measurements, vital sign monitoring, physical examinations, ECGs, telephone follow-up, and electronic subject ingestion diaries. […]

gut microbiome = experiment: Normal human volunteer study of D-xylose: changes in the gut microbiome (stool 16S sequencing); assay type: in vivo; conditions: for alpha diversity of the gut microbiome: over time on study
[3] = in vivo; cited from earlier work
vaginal microbiome = test system: vaginal microbiome; set-up: species or system C57Bl/6 female mice; conditions: mouse, in vivo, po
Excerpt: (§1) The trillions of organisms forming the microbiome function as an organ system interconnected throughout the body. The possibility that modification of the microbiome in a given physical location may influence the microbiome at other sites in the body (distal augmentation) was investigated. Seven week old C57Bl/6 female mice were acclimatized for 7 days prior to the start of the study by daily handling and shuffling between cages. All mice were housed at three mice per cage in individually vented cages (Thoren, Hazleton, Pa.). At day 0, baseline fresh fecal pellets, and vaginal lavages with 100 μL of sterile double-distilled water were collected and immediately frozen at −80° C. for microbiome analysis. […] Water alone is not expected to influence the microbiome and acted as a negative control. […] The impact of oral vancomycin is therefore expected to be limited to the gastrointestinal tract such that microbiome changes elsewhere in the body (e.g. vagina) would be attributable to distal augmentation. […]
(§2) Isolation and sequencing of microbial DNA from the stool and vaginal samples was performed by DNA Genotek (Ottawa, ON, Canada). The V3-V4 region of the 16S ribosomal subunit was amplified with custom PCR primers and sequenced on an Illumina MiSeq to a minimum acceptable read depth of 25,000 sequences per sample. […]

microbiome of the gut = test system: microbiome of the gut; set-up: species or system C57Bl/6 female mice; conditions: mouse, in vivo
Excerpt: as §1, §2

[4] = cited from earlier work
human PBMCs = experiment: Flow cytometry of T cell populations in human PBMCs cultured with commensal bacteria; assay type: cell-based; conditions: compared to PBMCs alone (control); percent of CD3ε+CD4+ cells
Protocol: In order to determine whether exposure to commensal bacteria may polarize T cells toward a particular phenotype, flow cytometry analysis was performed on human PBMCs cultured with various commensal bacteria as described above. The cells recovered from culture were washed in phosphate-buffered saline and stained with a cocktail of fluorescently labeled antibodies against specific cell surface protein markers to allow for the detection of Th1 cells (CXCR3^+CCR6^−), Th2 cells (CXCR3^−CCR6^−), Th17 cells (CXCR3^+CCR6^+) and Tregs (CD25^+CD127^lo). Negative control wells contained PBMCs in culture medium alone and positive control wells contained PBMCs+LPS (100 ng/ml) as a known immune stimulus. The commensal bacteria examined inluded: Epv 1: R. gnavus; Epv 3: B. luti; Epv 2: E. rectale; Epv 5: B. wexlerae; Epv. 8: E. faecalis; Epv 20: B. obeum, ATCC 29174; Epv 21: B. product, ATCC 27340; Epv 24: B. hansenii, ATCC 27752. […] For example, the optimal T cell profile to address pro-inflammatory disorders such as GVHD would consist of ↑Treg, ↓Th17, ↓ or unchanged Th1, and ↑Th2. This phenotype was induced by many of the bacteria tested.

[5] = test system: human peripheral blood mononuclear cells (PBMCs); experiment: Cytokine release by human PBMCs incubated with commensal bacteria alone or in combination with E. faecalis (Luminex); assay type: cell-based; conditions: for ability to reduce/counteract the induction of pro-inflammatory cytokines by EPV 8 (incl. IL-6, MCP-1, IL-12p70, IFNγ): combination with EPV 8; for anti-inflammatory cytokine profile for a Th-1-driven condition such as GVHD: overall assessment, FIG. 11
[6] = bacterium alone, 24, 48 and 72 hours
[7] = Table 1, NIAID priority pathogen category, OP or N

O=C[C@H](O)[C@@H](O)[C@H](O)CO [D-xylose]
levels of serum interferon gamma over time ([1]; 2 g and 15 g D-xylose cohorts, FIG. 30): trend for reduced levels
total T-cells or any T-cell subsets over time ([1]; any ingestion amount): No consistent or clinically meaningful changes over time
subjects with normal serum CRP at Baseline with at least 1 post-ingestion CRP value >2.9 mg/L ([1]; human, in vivo): 8.3%
serum cytokines (TNF-α, IL-2, IL-6, IFN-γ, IL-10) over time ([1]; most data points below the limit of quantitation, any ingestion amount): did not indicate any consistent or clinically meaningful changes over time
basal levels of serum endotoxin (intestinal permeability; mouse, in vivo): reduced these basal levels over time; also recorded: reduces basal levels of serum endotoxin
effect of xylose on the increase in serum endotoxin level caused by cipro (intestinal permeability; mouse, in vivo): appeared to counteract the increase in serum endotoxin level; also recorded: counteracts the endotoxin increase
effect of xylose on the increase in serum endotoxin level caused by enro (intestinal permeability; mouse, in vivo): but not enro
SAEs, severe AEs, subject deaths [2]: No SAEs, severe AEs, or subject deaths were reported
changes in the gut microbiome, overall (gut microbiome; normal individuals and normal mice): subtle changes in the gut microbiome
community composition of the gut microbiome over time (gut microbiome; regardless of ingestion amount): no significant changes in community composition
alpha diversity of the gut microbiome (gut microbiome; regardless of ingestion amount): no apparent significant impact
alpha diversity of the gut microbiome (gut microbiome; regardless of ingestion amount, listed as xylose): no major shifts in the microbiome alpha diversity
Chao diversity index (community richness) over time (gut microbiome; xylose TID at 1, 2, 8, 12.5 or 15 grams, FIG. 31): overall decrease

CN[C@H](CC(C)C)C(=O)N[C@H]1C(=O)N[C@@H](CC(N)=O)C(=O)N[C@H]2C(=O)N[C@H]3C(=O)N[C@H](C(=O)N[C@H](C(=O)O)c4cc(O)cc(O)c4-c4cc3ccc4O)[C@H](O)c3ccc(c(Cl)c3)Oc3cc2cc(c3O[C@@H]2O[C@H](CO)[C@@H](O)[C@H](O)[C@H]2O[C@H]2C[C@](C)(N)[C@H](O)[C@H](C)O2)Oc2ccc(cc2Cl)[C@H]1O [Vancomycin, vancomycin]
absorption from the gut after oral administration [3]: poorly absorbed from the gut
day 0 to day 6 pattern in vaginal samples (PCA) (vaginal microbiome): overall difference between the PBS and oral vancomycin groups
impact on the microbiome of the gut (PCA at the family level, fecal samples day 0 to day 6) (microbiome of the gut): strong impact

CCN1CCN(c2cc3c(cc2F)c(=O)c(C(=O)O)cn3C2CC2)CC1 [enro, enrofloxacin, reference compound]
serum endotoxin levels after antibiotic treatment (intestinal permeability; 0.25 g/L in drinking water day −7 to day −2, measured 2 days after a 5 day course (day 0)): increase in serum endotoxin levels
serum endotoxin levels over time after antibiotic treatment (intestinal permeability; by day 14): return to baseline by day 14

Bacteroides fragilis
Pathogen Status ([4]; Table 1, OTU list, NIAID priority pathogen category, OP or N): N

Blautia Hansenii ATCC27752 [EPV 24]
proportion of T cells with a regulatory phenotype (Tregs, CD25+CD127lo) (human PBMCs): greatest impact

Blautia luti (BlnIX) [EPV 114]
low induction of pro-inflammatory cytokines and/or positive induction of anti-inflammatory cytokines, and ability to counteract the inflammatory activity of E. faecalis (candidate criteria) [5]: meeting these criteria

Blautia luti [EPV 3]
intrinsic inflammatory activity (induction of pro-inflammatory cytokines) compared to EPV 8 ([5]; bacterium alone): relatively low intrinsic inflammatory activity
induction of Th1-related cytokines (IFN-γ, IL-12p70, IL-6, IL-2, TNFα) [5, 6]: minimal induction
induction of monocyte, macrophage and neutrophil-related inflammatory cytokines (MCP-1, MIP1β, MIP1α, RANTES, IL-1α, IL1β, IFN-α2, IL-8) [5, 6]: least inflammatory
countering the effect of E. faecalis (Epv 8) on monocyte, macrophage and neutrophil-related inflammatory cytokines ([5]; combination with E. faecalis): most effective
counteracting induction of Th1-related cytokines by E. faecalis (Epv 8) ([5]; combination with E. faecalis, 24, 48 and 72 hours): most effective
ability to reduce/counteract the induction of pro-inflammatory cytokines by EPV 8 (incl. IL-6, MCP-1, IL-12p70, IFNγ) [5]: able to reduce the induction of pro-inflammatory cytokines
anti-inflammatory cytokine profile for a Th-1-driven condition such as GVHD [5]: significantly desirable anti-inflammatory profile; also recorded: desirable anti-inflammatory cytokine profile

Blautia obeum [EPV 78]
low induction of pro-inflammatory cytokines and/or positive induction of anti-inflammatory cytokines, and ability to counteract the inflammatory activity of E. faecalis (candidate criteria) [5]: meeting these criteria

Blautia producta ATCC 27340 [EPV 21]
proportion of T cells with a regulatory phenotype (Tregs, CD25+CD127lo) (human PBMCs): greatest impact

Blautia wexlerae [EPV 5]
induction of IL-10 ([5]; 24, 48 and 72 hours): most potent
ability to reduce/counteract the induction of pro-inflammatory cytokines by EPV 8 (incl. IL-6, MCP-1, IL-12p70, IFNγ) [5]: little ability to counteract
anti-inflammatory cytokine profile for a Th-1-driven condition such as GVHD [5]: suboptimal anti-inflammatory profile

Clostridium glycolicum
Pathogen Status [4, 7]: N

Clostridium paraputrificum
Pathogen Status [4, 7]: N

Clostridium sordellii
Pathogen Status [4, 7]: N

Clostridium tertium
Pathogen Status [4, 7]: N

Enterococcus faecalis [EPV 8, reference compound]
induction of Th1-related cytokines (IFN-γ, IL-12p70, IL-6, IL-2, TNFα) [5]: induced high levels
proportion of T cells with a regulatory phenotype (Tregs, CD25+CD127lo) (human PBMCs): little or no increase
Pathogen Status ([4]; OTU of Table 1): N

Eubacterium rectale [EPV 2]
induction of monocyte, macrophage and neutrophil-related inflammatory cytokines (MCP-1, MIP1β, MIP1α, RANTES, IL-1α, IL1β, IFN-α2, IL-8) [5, 6]: least inflammatory
countering the effect of E. faecalis (Epv 8) on monocyte, macrophage and neutrophil-related inflammatory cytokines ([5]; combination with E. faecalis): most effective

Eubacterium rectale [EPV 35]
low induction of pro-inflammatory cytokines and/or positive induction of anti-inflammatory cytokines, and ability to counteract the inflammatory activity of E. faecalis (candidate criteria) [5]: meeting these criteria

Ruminococcus gnavus [EPV 1]
eliciting Th2 cytokines (IL-13, IL-4, IL-5) ([5]; bacterium on its own, 24, 48 and 72 hours): most active
eliciting Th2 cytokines (IL-13, IL-4, IL-5) ([5]; in the presence of E. faecalis, 24, 48 and 72 hours): most active
